Assays:
[1] = target: T1, Lysine-specific demethylase 4C (Homo sapiens, UniProt Q9H3R0); assay: Inhibition of KDM4C (unknown origin) preincubated with enzyme
T1 sequence (Q9H3R0 whole entry): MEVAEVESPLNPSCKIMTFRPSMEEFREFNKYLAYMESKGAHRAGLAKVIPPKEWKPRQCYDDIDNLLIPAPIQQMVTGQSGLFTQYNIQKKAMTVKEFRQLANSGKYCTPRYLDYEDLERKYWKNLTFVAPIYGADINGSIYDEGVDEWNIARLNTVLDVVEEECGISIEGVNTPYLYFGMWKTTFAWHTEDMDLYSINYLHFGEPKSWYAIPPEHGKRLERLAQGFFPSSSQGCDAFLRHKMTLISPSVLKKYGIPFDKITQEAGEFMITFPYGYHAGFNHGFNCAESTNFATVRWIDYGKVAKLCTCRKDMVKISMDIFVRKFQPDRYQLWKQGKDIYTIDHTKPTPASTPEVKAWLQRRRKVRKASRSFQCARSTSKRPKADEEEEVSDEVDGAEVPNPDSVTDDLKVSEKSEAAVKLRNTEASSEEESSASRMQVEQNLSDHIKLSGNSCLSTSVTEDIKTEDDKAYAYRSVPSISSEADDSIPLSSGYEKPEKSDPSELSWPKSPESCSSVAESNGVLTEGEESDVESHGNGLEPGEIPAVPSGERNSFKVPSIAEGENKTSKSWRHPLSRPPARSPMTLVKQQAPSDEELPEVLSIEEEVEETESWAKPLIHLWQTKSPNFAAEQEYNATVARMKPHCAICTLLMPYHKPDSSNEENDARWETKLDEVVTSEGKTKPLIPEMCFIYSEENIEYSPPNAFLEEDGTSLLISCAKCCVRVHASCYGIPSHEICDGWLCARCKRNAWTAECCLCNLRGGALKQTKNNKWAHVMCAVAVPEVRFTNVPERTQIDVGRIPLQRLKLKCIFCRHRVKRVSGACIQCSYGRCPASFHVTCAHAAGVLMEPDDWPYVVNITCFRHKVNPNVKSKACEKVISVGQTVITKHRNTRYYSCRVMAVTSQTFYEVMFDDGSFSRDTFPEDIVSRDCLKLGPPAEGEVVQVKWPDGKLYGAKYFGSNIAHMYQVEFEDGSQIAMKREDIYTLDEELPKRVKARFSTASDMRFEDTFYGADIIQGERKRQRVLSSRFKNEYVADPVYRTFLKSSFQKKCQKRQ

[2] = target: Voltage-gated inwardly rectifying potassium channel KCNH2 (Homo sapiens, UniProt Q12809); assay: Inhibition of human ERG
[3] = AUC in CD-1 mouse at 10 mg/kg, po; type: ADME, organism-based; conditions: in vivo
[4] = target: Lysine-specific demethylase 5B (Homo sapiens, UniProt Q9UGL1); assay: Inhibition of KDM5B (unknown origin) preincubated with enzyme
[5] = target: Lysine-specific demethylase 5A (Homo sapiens, UniProt P29375); assay: Inhibition of KDM5A (unknown origin) preincubated with enzyme
[6] = Inhibition of CYP450 (unknown origin); type: ADME; conditions: human
[7] = target: T2, Lysine-specific demethylase 2A (Homo sapiens, UniProt Q9Y2K7); assay: Inhibition of KDM2A (unknown origin)
T2 sequence (Q9Y2K7 whole entry): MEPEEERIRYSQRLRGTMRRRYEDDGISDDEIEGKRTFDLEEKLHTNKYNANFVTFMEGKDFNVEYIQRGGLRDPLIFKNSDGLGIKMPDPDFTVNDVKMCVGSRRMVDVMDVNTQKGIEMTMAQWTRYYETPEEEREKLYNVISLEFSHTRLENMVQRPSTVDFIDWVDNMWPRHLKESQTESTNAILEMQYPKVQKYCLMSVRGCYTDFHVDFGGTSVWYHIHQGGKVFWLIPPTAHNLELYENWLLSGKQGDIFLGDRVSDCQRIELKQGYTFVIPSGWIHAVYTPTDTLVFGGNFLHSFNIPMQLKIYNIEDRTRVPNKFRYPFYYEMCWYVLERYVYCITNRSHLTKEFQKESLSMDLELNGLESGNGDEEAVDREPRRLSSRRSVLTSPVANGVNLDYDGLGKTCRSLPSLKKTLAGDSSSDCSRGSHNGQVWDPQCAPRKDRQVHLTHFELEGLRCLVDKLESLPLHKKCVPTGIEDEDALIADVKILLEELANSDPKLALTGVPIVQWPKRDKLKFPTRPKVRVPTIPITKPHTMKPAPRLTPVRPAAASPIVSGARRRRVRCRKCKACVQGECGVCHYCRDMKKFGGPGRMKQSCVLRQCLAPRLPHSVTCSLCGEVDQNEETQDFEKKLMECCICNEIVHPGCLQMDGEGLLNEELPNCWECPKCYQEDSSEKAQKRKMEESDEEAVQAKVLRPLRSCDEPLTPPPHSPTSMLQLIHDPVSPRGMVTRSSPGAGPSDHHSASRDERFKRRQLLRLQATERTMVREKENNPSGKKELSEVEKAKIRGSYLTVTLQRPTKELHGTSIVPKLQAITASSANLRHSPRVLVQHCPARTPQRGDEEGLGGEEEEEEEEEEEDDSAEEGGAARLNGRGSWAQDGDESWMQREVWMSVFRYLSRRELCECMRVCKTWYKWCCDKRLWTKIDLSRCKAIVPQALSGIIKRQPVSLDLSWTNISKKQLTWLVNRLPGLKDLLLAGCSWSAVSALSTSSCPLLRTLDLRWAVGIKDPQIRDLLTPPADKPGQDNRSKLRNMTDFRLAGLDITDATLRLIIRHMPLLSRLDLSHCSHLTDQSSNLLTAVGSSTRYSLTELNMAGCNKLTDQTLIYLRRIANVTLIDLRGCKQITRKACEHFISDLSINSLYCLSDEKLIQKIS

Mus musculus = assay: In vivo inhibition of KDM5 in nude mouse xenografted with human MCF7 cells assessed as increase in H3K4me3 level in tumor at 75 mg/kg, po qd for 5 days measured at 1 hrs post last dose by Western blot analysis relative to control; type: functional

Sequence of Voltage-gated inwardly rectifying potassium channel KCNH2 (Q12809 whole entry): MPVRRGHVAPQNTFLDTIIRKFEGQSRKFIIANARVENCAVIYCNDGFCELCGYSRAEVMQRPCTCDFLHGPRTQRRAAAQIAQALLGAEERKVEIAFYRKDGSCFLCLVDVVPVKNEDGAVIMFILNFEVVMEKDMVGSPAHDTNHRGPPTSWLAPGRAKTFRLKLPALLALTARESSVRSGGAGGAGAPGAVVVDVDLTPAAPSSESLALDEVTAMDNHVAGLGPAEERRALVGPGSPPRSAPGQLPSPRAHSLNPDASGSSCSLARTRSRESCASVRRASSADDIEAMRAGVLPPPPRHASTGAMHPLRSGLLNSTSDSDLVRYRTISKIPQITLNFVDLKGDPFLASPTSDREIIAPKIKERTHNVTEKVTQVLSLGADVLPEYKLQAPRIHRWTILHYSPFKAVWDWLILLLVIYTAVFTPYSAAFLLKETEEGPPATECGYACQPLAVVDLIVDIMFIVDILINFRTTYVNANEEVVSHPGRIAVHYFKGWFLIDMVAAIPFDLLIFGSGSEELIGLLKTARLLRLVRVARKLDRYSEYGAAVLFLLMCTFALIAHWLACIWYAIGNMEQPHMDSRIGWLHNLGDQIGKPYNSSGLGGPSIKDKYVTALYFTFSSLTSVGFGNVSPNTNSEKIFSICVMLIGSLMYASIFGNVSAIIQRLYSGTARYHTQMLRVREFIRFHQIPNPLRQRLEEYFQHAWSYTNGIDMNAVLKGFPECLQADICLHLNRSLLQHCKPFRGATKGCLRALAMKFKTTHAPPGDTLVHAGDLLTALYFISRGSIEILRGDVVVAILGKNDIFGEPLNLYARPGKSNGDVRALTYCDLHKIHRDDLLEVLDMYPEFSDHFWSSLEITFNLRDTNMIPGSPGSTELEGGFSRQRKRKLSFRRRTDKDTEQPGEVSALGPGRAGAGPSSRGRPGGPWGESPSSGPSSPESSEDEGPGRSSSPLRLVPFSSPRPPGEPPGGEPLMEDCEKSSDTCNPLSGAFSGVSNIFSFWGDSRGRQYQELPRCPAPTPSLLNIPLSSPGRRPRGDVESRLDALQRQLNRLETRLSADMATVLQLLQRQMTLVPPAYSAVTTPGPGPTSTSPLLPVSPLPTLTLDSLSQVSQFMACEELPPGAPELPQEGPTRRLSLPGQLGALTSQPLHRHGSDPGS
Sequence of Lysine-specific demethylase 5A (P29375 whole entry): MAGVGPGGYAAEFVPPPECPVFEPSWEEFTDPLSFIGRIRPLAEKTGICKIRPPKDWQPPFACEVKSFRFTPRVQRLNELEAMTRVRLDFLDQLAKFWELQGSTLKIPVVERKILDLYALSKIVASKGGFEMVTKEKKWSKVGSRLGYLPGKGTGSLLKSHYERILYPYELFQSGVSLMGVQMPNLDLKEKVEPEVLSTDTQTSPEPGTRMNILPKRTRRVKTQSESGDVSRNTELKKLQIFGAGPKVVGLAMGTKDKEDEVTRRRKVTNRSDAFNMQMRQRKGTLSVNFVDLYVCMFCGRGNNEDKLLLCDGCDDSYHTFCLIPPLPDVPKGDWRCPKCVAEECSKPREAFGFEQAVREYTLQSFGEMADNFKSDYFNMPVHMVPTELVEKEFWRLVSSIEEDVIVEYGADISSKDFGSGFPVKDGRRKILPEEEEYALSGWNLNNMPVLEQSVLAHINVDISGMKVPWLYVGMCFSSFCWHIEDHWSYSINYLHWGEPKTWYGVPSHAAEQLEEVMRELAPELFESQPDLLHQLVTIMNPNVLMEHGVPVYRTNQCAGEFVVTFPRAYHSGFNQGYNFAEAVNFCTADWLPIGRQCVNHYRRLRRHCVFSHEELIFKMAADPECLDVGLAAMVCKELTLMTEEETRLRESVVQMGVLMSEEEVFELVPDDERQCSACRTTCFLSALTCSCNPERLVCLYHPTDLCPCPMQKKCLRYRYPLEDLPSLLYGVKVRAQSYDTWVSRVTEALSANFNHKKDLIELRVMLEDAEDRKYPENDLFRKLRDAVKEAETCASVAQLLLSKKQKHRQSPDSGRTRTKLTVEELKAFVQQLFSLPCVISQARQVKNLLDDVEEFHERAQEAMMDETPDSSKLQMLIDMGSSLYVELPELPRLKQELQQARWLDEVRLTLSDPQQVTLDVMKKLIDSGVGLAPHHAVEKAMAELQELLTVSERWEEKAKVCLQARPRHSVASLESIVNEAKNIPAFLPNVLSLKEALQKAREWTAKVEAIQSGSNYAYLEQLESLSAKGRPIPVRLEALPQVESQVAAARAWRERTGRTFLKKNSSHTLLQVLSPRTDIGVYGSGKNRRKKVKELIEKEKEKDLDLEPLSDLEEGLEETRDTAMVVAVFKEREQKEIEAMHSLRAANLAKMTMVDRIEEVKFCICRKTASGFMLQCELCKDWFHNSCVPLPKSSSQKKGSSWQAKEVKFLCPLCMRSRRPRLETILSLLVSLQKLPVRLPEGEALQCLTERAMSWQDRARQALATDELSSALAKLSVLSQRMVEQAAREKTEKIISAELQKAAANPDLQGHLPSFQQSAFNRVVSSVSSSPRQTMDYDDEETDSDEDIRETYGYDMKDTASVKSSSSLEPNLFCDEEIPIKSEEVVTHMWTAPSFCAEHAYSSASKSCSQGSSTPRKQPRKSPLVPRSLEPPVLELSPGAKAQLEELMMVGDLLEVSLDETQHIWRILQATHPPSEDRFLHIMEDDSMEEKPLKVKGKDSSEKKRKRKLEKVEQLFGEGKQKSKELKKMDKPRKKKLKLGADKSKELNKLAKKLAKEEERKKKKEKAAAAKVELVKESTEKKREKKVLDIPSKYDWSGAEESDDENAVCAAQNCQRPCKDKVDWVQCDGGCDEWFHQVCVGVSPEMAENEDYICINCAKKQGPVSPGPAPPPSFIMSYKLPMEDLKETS
Sequence of Lysine-specific demethylase 5B (Q9UGL1 whole entry): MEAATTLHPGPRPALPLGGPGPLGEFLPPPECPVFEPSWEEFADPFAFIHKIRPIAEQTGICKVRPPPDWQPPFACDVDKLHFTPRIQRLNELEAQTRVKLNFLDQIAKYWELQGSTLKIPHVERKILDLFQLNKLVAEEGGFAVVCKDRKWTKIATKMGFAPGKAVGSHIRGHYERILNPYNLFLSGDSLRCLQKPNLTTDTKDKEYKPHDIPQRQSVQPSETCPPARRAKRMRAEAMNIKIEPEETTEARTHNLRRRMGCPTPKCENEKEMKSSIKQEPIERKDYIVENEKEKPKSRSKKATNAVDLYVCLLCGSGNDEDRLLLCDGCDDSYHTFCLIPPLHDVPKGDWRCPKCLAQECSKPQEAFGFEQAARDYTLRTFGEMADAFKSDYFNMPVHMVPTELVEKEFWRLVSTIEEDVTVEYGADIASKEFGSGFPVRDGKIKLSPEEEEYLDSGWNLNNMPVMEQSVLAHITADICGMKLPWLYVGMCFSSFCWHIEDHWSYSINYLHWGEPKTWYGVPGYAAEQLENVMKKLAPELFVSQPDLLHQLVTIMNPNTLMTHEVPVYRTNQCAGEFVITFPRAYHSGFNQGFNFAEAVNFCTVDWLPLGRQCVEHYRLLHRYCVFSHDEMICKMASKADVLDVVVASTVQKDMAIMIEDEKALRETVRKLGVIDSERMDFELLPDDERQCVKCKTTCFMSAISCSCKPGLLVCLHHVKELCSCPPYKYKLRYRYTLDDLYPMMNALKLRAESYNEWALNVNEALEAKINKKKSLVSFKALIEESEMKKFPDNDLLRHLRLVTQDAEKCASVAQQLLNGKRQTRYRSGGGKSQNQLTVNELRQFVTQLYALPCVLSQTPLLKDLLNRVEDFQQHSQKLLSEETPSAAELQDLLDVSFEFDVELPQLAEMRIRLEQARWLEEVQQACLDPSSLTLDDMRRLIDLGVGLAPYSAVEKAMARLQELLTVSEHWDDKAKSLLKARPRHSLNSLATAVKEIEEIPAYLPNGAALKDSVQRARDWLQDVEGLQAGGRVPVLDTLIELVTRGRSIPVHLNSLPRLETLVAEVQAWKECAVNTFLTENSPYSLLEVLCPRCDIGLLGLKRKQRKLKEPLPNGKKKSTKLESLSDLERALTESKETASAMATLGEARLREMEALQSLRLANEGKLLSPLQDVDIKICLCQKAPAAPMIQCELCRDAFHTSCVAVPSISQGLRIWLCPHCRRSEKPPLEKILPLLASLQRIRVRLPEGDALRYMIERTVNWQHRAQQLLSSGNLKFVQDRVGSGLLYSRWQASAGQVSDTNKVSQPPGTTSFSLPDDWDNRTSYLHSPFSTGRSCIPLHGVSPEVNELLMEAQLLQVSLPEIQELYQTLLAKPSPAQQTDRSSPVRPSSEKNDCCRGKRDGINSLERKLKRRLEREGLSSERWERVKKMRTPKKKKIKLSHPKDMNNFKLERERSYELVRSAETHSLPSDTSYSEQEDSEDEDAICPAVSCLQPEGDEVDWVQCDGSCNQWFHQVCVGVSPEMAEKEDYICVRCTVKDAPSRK

- IC50 [1]: 0.035 to 0.041 µM
- AUC [3]: 44 µg·h/mL
- IC50 [4]: 0.002 µM
- IC50 [5]: 0.013 µM
- inhibition (INH) [6]: Not Active
- IC50 [7]: 0.82 µM
SMILES: Cc1cc(Cl)ccc1COc1ccnn1-c1cc(C(=O)O)ccn1
- inhibition (INH) [2]: Not Active
- fold change (FC) (Mus musculus): >4

— ChEMBL document CHEMBL4219204, “Structure-based design and discovery of potent and selective KDM5 inhibitors” (Bioorg Med Chem Lett, 2018)
